The text below walks through data of ChEMBL document CHEMBL1201862, “PubChem BioAssay data set” (2004).

Each structure is given as a SMILES string.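 96-well plates; 48 h exposure; 5 concentrations. Endpoints by linear interpolation between flanking doses. Not reached: highest tested concentration assigned. Here, GI50 denotes the concentration required for 50% inhibition of growth.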 Activity calls are given as the source filed them. No stated cut-off is given here; in the data, active = GI50 up to about 1.1 µM and inactive = higher.

What all share (test): inhibition of tumour cell growth, NCI panel, 48 h
For assay [1], the system named is 786-0.
The test system of assay [2] is A549.
Assay [3] relates to COLO 205.
Assay [4] deals with EKVX.
Assay [5] has as its system HT-29.
The test system of assay [6] is K562.
Assay [7] deals with MCF7.
In assay [8] the test system is MDA-MB-231.
Assay [9] deals with MOLT-4.
Assay [10] has as its system Malme-3M.
Assay [11] concerns NCI-H23.
Assay [12] relates to RPMI-8226.
Assay [13] relates to SK-MEL-28.
Assay [14] concerns SNB-19.
Assay [15] concerns SR.
For assay [16], the system named is U-251.
The test system of assay [17] is UACC-62.
In assay [18] the test system is UO-31.
In assay [19] the test system is HOP-92.
In assay [20] the test system is BT-549.

For the compound `CC1=NOC2(C1)C(=O)Nc1ccccc12` (stereo not given), the GI50 in assay [1], in assay [2], in assay [3], in [4], in [5] and in assay [6] was > 100 µM (inactive) in each case. Besides, the GI50 in assay [7] was 9.79 µM (inactive); in [8], > 100 µM (inactive); in assay [9], > 100 µM (inactive); in assay [10] it was > 100 µM (inactive); in assay [11], > 100 µM (inactive); in [12], > 100 µM (inactive). Moreover, the GI50 in assay [13] was > 100 µM (inactive); in assay [14], 40.6 µM (inactive); in [15], > 100 µM (inactive); in [16] it was > 100 µM (inactive); in [17] it was > 100 µM (inactive); in assay [18] it was 0.0121 µM (active).

With `CC(C)SC(NC(=O)C1C(C)(C)CCC1(C)C)C(=O)O` (stereo not given), the GI50 in assay [1], in assay [2], in assay [3], in [4], in assay [19] and in assay [6] was > 100 µM (inactive) throughout. Besides, the GI50 in assay [7] was > 100 µM (inactive); in assay [8], > 100 µM (inactive); in [9], > 10 µM (inactive); in assay [11], > 100 µM (inactive); in assay [12], > 100 µM (inactive); in assay [13], > 100 µM (inactive). The GI50 in [14], in assay [16], in assay [17] and in assay [18] was > 100 µM (inactive) each time.

For the compound `COc1ccc2c(c1)C(=O)Cc1ccccc1CC2`, the GI50 is 72.3 µM (inactive) in assay [1]; > 100 µM (inactive) in assay [2]; > 100 µM (inactive) in assay [3]; > 100 µM (inactive) in assay [4]; > 100 µM (inactive) in assay [19]; > 100 µM (inactive) in [5]. Moreover, the GI50 in assay [6], in assay [9], in assay [10], in [11], in [12] and in assay [13] was > 100 µM (inactive) in each case. The GI50 in assay [14], in assay [15], in assay [16], in assay [17] and in assay [18] was > 100 µM (inactive) in each case.

`Cc1cc(Cl)ccc1N1C(=O)C(=O)C(c2nc3ccccc3s2)C(=O)C1=O`: the GI50 in [1], in assay [2], in assay [3], in assay [4], in assay [19] and in assay [5] was > 100 µM (inactive) in each case. In addition, the GI50 in assay [6], in assay [9], in assay [10], in assay [11], in assay [12] and in assay [13] was > 100 µM (inactive) in each case. In addition, the GI50 in assay [14], in [15], in assay [16], in [17] and in assay [18] was > 100 µM (inactive) in each case.

For the compound `CC(CNCCCNCCNCCCNCO)[N+](=O)[O-]` (stereo not given), the GI50 in assay [1] was 15.7 µM (inactive); in assay [2], 21.9 µM (inactive); in assay [3], 6.52 µM (inactive); in [4], 16 µM (inactive); in [19], 2.65 µM (inactive); in assay [5], 21.3 µM (inactive). For the same compound, the GI50 in assay [6] was 3.44 µM (inactive); in assay [9] it was 4.12 µM (inactive); in assay [10] it was 2.07 µM (inactive); in assay [11] it was 15 µM (inactive); in assay [12], 5.06 µM (inactive); in assay [13] it was 13.6 µM (inactive). In addition, the GI50 is > 100 µM (inactive) in [14]; 3.39 µM (inactive) in [15]; 15.9 µM (inactive) in assay [16]; 16 µM (inactive) in [17]; 16.9 µM (inactive) in assay [18].

On to `O=C(CSCC(=O)N/N=C\c1cc(Br)cc(Br)c1O)N/N=C\c1cc(Br)cc(Br)c1O`, for which the GI50 was 32.5 µM (inactive) in [1]; 76.6 µM (inactive) in assay [2]; 37.4 µM (inactive) in assay [20]; 33.7 µM (inactive) in assay [3]; 37.1 µM (inactive) in [4]; 19.5 µM (inactive) in assay [19]. Besides, the GI50 in assay [5] was 39.6 µM (inactive); in [6] it was 21.9 µM (inactive); in [7], 44.8 µM (inactive); in assay [9], 13 µM (inactive); in assay [10] it was 14.4 µM (inactive); in assay [11] it was 48.4 µM (inactive). Further, the GI50 in [13] is 26.4 µM (inactive); in [14], 65.6 µM (inactive); in assay [15] it was 15 µM (inactive); in [16], 4.28 µM (inactive); in [17] it was 18 µM (inactive); in assay [18], 15.7 µM (inactive).

Regarding `O=C1CCC2c3ccccc3NCN12` (stereo not given), the GI50 in assay [1], in [2], in assay [3], in assay [4], in assay [19] and in assay [5] was > 100 µM (inactive) throughout. The GI50 in assay [6], in [7], in assay [8], in assay [9], in assay [10] and in assay [11] was > 100 µM (inactive) each time. Further, the GI50 in assay [12], in assay [13], in assay [14], in assay [16], in assay [17] and in assay [18] was > 100 µM (inactive) in each case.

Consider `COc1cc(-c2cc(CCC(=O)Nc3ccccc3[N+](=O)[O-])n(-c3ccc([N+](=O)[O-])cc3[N+](=O)[O-])n2)ccc1O`, for which the GI50 in [1], in assay [2], in [3], in assay [4], in assay [19] and in assay [5] was > 10 µM (inactive) each time. Moreover, the GI50 in assay [6] is 82.6 µM (inactive); in assay [9] it was > 10 µM (inactive); in [10], > 10 µM (inactive); in assay [11] it was > 10 µM (inactive); in assay [12], > 10 µM (inactive); in assay [13] it was > 10 µM (inactive). Further, the GI50 was > 10 µM (inactive) in assay [14]; > 10 µM (inactive) in [15]; > 10 µM (inactive) in [16]; 38.4 µM (inactive) in assay [17]; > 10 µM (inactive) in assay [18].

Turning to `COC(=O)/C=C1\C(CO[Si](C)(C)C(C)(C)C)OC(n2cc(C)c(=O)n(C)c2=O)C1O[Si](C)(C)C(C)(C)C` (stereo not given), the GI50 in [1], in assay [2], in assay [3], in assay [4], in assay [19] and in assay [5] was > 100 µM (inactive) throughout. In addition, the GI50 in [6] is > 100 µM (inactive); in [7] it was 27 µM (inactive); in assay [8], > 100 µM (inactive); in assay [9] it was > 100 µM (inactive); in [10], > 100 µM (inactive); in assay [11] it was > 100 µM (inactive). In addition, the GI50 in assay [12] is 78 µM (inactive); in [13], > 100 µM (inactive); in [14], > 100 µM (inactive); in [16], 81.7 µM (inactive); in assay [17] it was > 100 µM (inactive); in assay [18] it was > 100 µM (inactive).

Take `C/C=C/C(C#N)(/C=C/c1ccccc1)OP1(=O)OC(c2ccccc2)C(C)N1C` (stereo not given): the GI50 in assay [1] is 17.1 µM (inactive); in assay [2], 20 µM (inactive); in [3], 17.2 µM (inactive); in assay [4], 20.6 µM (inactive); in assay [19], 14.6 µM (inactive); in assay [5] it was 19.7 µM (inactive). For the same compound, the GI50 in [6] was 16.4 µM (inactive); in assay [7] it was 22.8 µM (inactive); in assay [8] it was 17.5 µM (inactive); in assay [9], 10.9 µM (inactive); in assay [10], 18.9 µM (inactive); in assay [12], 15.2 µM (inactive). The GI50 in [13] is 17.1 µM (inactive); in [14], 20.7 µM (inactive); in assay [16] it was 17.2 µM (inactive); in assay [17], 17.7 µM (inactive); in assay [18] it was 17.8 µM (inactive).

`CC(C)(C)OC(=O)C1CC[C@@H](CC(=O)Oc2ccc([N+](=O)[O-])cc2)N1` (stereo not given in full): the GI50 in [1], in assay [2], in [3], in assay [4], in [19] and in [7] was > 100 µM (inactive) throughout. Further, the GI50 in [8], in [9], in [10], in [11], in assay [12] and in assay [13] was > 100 µM (inactive) throughout. In addition, the GI50 was > 100 µM (inactive) in assay [14]; 59 µM (inactive) in assay [15]; > 100 µM (inactive) in [16]; > 100 µM (inactive) in [17]; > 100 µM (inactive) in assay [18].
